Results on nine compounds are retold here after US20050031717A1, “Salt taste modification” (priority 2003, published 2005).

“Also recorded” adds a separate entry of the source.

The test system of assay [1] is amiloride-insensitive salt taste receptor. Briefly: Rat chorda tympani (CT) taste nerve recordings. Format: in vivo. The conditions noted are these: for effect on NaCl chorda tympani response: no Bz; for effect on RTX-enhanced NaCl chorda tympani response: 100 mM NaCl+5 μM benzamil+0.75 μM RTX, capsazepine 0-500 μM. An excerpt: Chorda tympani nerve recordings. Recordings from the chorda tympani (CT) taste nerves of anesthetized rats were made. Recordings were made with various salt stimuli and with the taste receptive field under current or voltage clamp in order to observe the effect, if any, of modulating the driving force for ions through putative […] apical membrane ion channels involved in salt taste reception.

The test system is the same in assay [2]. Description: Chorda tympani responses in wildtype C57BL/6J mice. It is filed as in vivo, mouse.
Assay [3] shares this test system.
Assay [4] has as its system polarized rat fungiform taste receptor cells. Description: [Na+]i measurement (Na-green F490) in polarized taste receptor cells, unilateral apical Na+ flux. Format: cell-based. An excerpt: [Na^+]i measurement in polarized taste receptor cells. A small piece of the anterior lingual epithelium containing a single fungiform papilla was mounted in a special microscopy chamber (Lyall et al., 2002, supra). Relative changes in intracellular sodium activity ([Na^+]i) were monitored in polarized taste receptor cells with the sodium sensitive fluoroprobe sodium-green. The taste receptor cells in the taste bud were visualized from the basolateral side through a 40× objective using a fluorescence microscope.

Where [5] appears, read: fixed RTX concentration (0.75 μM), 100 mM NaCl+5 μM Bz.

In the case of `Nc1ncnc2c1ncn2[C@@H]1O[C@H](COP(=O)(O)OP(=O)(O)OP(=O)(O)O)[C@@H](O)[C@H]1O` [ATP, Adenosine 5′-triphosphate], in assay [1] (100 μM evodiamine+500 μM ATP, 100 mM NaCl+5 μM benzamil), the “effect on chorda tympani response compared to 100 mM NaCl+5 μM benzamil+100 μM evodiamine” value was “further enhancement”. For the same compound, the “effect on the temperature threshold of the Bz-insensitive NaCl chorda tympani response” value in assay [1] (ATP 500 μM alone) is listed as “no effect”.

Consider `COc1cc(CNC(=S)CC(COC(=O)C(C)(C)C)Cc2ccc(C)c(C)c2)ccc1O` (centres unmarked) [Agonist 23, 2-(3,4-dimethylbenzyl)-3-{[(4-hydroxy-3-methoxybenzyl)amino]carbothioyl}propyl pivalate], for which, in assay [1] (100 mM NaCl+5 μM benzamil), the “effect on CT response at higher concentrations” value was “decrease” and the “effect on CT response at low concentration” value is listed as “enhances”. For the same compound, the “temperature dependence of effectiveness” value in assay [1] (41° versus 23°) is reported as “more effective at 41°”.

As for `NC(=NCc1ccccc1)NC(=O)c1nc(Cl)c(N)nc1N` [Bz, benzamil], the “part of the NaCl chorda tympani response that was Bz-insensitive” value in assay [2] (wildtype mice, 23°, 100 mM NaCl+5 μM Bz) is “about 25%”.

With `C=C(C)[C@]12C[C@@H](C)[C@@]34O[C@](Cc5ccccc5)(O[C@@H]1[C@@H]3C=C(COC(=O)Cc1ccc(O)c(OC)c1)C[C@]1(O)C(=O)C(C)=C[C@@H]41)O2` [RTX, resiniferatoxin], the “effect on Bz-insensitive NaCl chorda tympani response” value in assay [2] (wildtype mice, 23°, 100 mM NaCl+5 μM Bz+0.75 μM RTX) is listed as “enhanced”. Moreover, in assay [2] (wildtype mice, 42°, 100 mM NaCl+5 μM Bz+0.75 μM RTX), the “response to RTX at 42°” value was “significantly enhanced relative to 23°”. Besides, in assay [3] (VR1 knockout mice, 0.75 μM RTX, 23° and 42°), the “effect on response to NaCl+Bz” value is recorded as “No effects”. In assay [1] (10 mM KCl+0.5 μM RTX at 23°, no ethanol), the CT response profile result was “only a transient phasic response”. Also, the “effect of RTX on the CT response to ethanol” value in assay [1] (10 mM KCl+40% ETH+0.5 μM RTX, 23° and 42°) is reported as “enhanced the response”. In addition, the “effect on temperature threshold of the KCl CT response” value in assay [1] (10 mM KCl+60% ETH+0.5 μM RTX) is “without affecting the temperature threshold”. Further, in assay [1] (100 mM NaCl+1 μM RTX), the “effect on NaCl chorda tympani response” value is on record as “reversibly increased”. Further, in assay [1] (100 mM NaCl+5 μM Bz), the “concentration at which enhancement of the Bz-insensitive NaCl chorda tympani response begins” value came to 0.1 µM, the “concentration at which the Bz-insensitive NaCl chorda tympani response decreased to rinse level (eliminated)” value is given as “around 10 μM”, the “concentration at which the NaCl response returned to control level” value was “around 3 μM” and the “concentration of maximum enhancement of the Bz-insensitive NaCl chorda tympani response” value was 1 µM. Moreover, the “rank order potency on the Bz-insensitive NaCl chorda tympani response” value in assay [1] (100 mM NaCl+5 μM Bz) is reported as “RTX>CAP>CPC”. For the same compound, the “pH of greatest RTX-induced increase in the Bz-insensitive NaCl chorda tympani response” value in assay [1] (100 mM NaCl+5 μM Bz+0.5 μM RTX, pHo 2-10) was 6. Moreover, the “effect on Bz-insensitive NaCl chorda tympani response” value in assay [1] (100 mM NaCl+5 μM Bz+1 μM RTX) is on record as “same magnitude of enhancement”. Further, the “effect on NaCl chorda tympani response” value in assay [1] (100 mM NaCl+10 μM RTX) is given as “reversibly decreased”. In addition, the “effect on Bz-insensitive NaCl chorda tympani response” value in assay [1] (NaCl+5 μM Bz+10 μM RTX) was “reduced the response (j-k) to rinse level”. The “effect on the CT responses to sucrose, quinine or H+ ions” value in assay [1] (rat, in vivo) was “no effect”.

In the case of `COc1cccc(NC(=O)C=Cc2ccc(Cl)cc2)c1` [SB-366791, N-(3-methoxyphenol)-4-chlorocinnamide], the “effect on Bz-insensitive NaCl chorda tympani response at 23° and elevated temperatures” value in assay [1] (1 μM SB-366791, 100 mM NaCl+5 μM Bz) is given as “completely blocked”. Also, the “effect on CT response to RTX+ETH” value in assay [1] (RTX+ETH+0.1 μM SB-366791, 23° and 42°) is reported as “completely inhibited the tonic component”. The “effect on transient phasic responses to ethanol” value in assay [1] (ethanol solutions containing 0.1 mM SB-366791) is “did not affect”. Further, in assay [4] (150 mM NaCl+), the “increase in F490 on increase of apical Na+ concentration” value is “completely inhibited; also recorded: no increase”. For the same compound, the “increase in F490 above baseline with ethanol” value in assay [4] (150 mM NaCl++40% ETH) is “no further increase”.

For the compound `COc1cc(CNC(=O)CCCC/C=C/C(C)C)ccc1O` [capsaicin], the “chorda tympani response to KCl and NH4Cl at high capsaicin” value in assay [1] (100 mM KCl, 100 mM NH4Cl, 200 μM capsaicin) was “a residual response remained”. Also, in assay [1] (100 mM NaCl+5 μM Bz), the “concentration at which the Bz-insensitive NaCl chorda tympani response decreased to rinse level (eliminated)” value turned out to be 200 µM, the “concentration of maximum enhancement of the Bz-insensitive NaCl chorda tympani response” value is 40 µM and the “rank order potency on the Bz-insensitive NaCl chorda tympani response” value is on record as “RTX>CAP>CPC”. For the same compound, in assay [1] (100 mM NaCl+5 μM Bz, listed as CAP), the “concentration of maximum enhancement of the Bz-insensitive NaCl chorda tympani response” value is “around 40 μM”.

Take `Oc1cc2c(cc1O)CN(C(=S)NCCc1ccc(Cl)cc1)CCC2` [capsazepine]: the figures for the “effect on RTX-enhanced NaCl chorda tympani response” value in assay [1] and in assay [1] (listed as CZP) were “monotonically reduced” and “dose-dependent inhibition”, respectively. Besides, the “effect on RTX concentration response curve of the Bz-insensitive NaCl chorda tympani response” value in assay [1] (CZP 10 μM, RTX 0-10 μM) was “shifted the RTX concentration response curve to the right”. The “CZP concentration at which chorda tympani responses decreased to the level with NaCl alone” value in assay [1] (setting [5]) was determined as 100 µM. The “CZP concentration at which the chorda tympani response was below the level with NaCl alone” value in assay [1] (setting [5]) is no less than 250 µM. Also, the “increase in F490 relative to 150 mM NaCl+5 mM Bz+40% ETH” value in assay [4] (150 mM NaCl+5 mM Bz+40% ETH+100 mM CZP) was “significantly smaller increase”.

For the compound `CCO` [ethanol], the “CT response relative to 10 mM KCl” value in assay [2] (WT mice, 10 mM KCl+60% ETH) was “greater CT response”. In assay [2] (WT mice, 100 mM NaCl+5 μM Bz+60% ETH), the “effect on Bz-insensitive NaCl CT response” value is “inhibited the CT response”. Further, the “CT response to R+60% ETH” value in assay [3] (VR1 KO mice, 10 mM KCl+60% ETH) was “no CT response”. The “effect on the NaCl CT response or the Bz-insensitive NaCl CT response” value in assay [3] (VR1 KO mice, 60% ETH) is “no effect”. Also, the “effect on CT response in the presence of RTX” value in assay [1] (10 mM KCl+0.5 μM RTX, 40% ETH or 60% ETH, 23°) is recorded as “increased the CT response in a dose dependent manner”. The CT response profile result in assay [1] (10 mM KCl+20% ETH at 42°) is “phasic response followed by a sustained tonic phase”; in assay [1] (10 mM KCl+20% ETH+0.5 μM RTX at 23°), “both a phasic component and a sustained tonic component”; in assay [1] (10 mM KCl+20% ETH, 23°), “only a transient phasic response”; in assay [1] (10 mM KCl+20% ETH, 23°, listed as ETH), “did not increase the CT response above baseline”; in assay [1] (10 mM KCl+30% ETH) it was “only a transient phasic response”; in assay [1] (10 mM KCl+40% ETH, 23°, listed as ETH), “transient phasic response that was followed by a sustained tonic response; also recorded: both a phasic and a tonic component”. Besides, in assay [1] (10 mM KCl+50% ETH and 10 mM KCl+60% ETH), the CT response profile entry was “both phasic and tonic components”. Further, the “enhancement of the magnitude of the tonic component at 42° relative to 23°” value in assay [1] (10 mM KCl+20% ETH+0.5 μM RTX) came out at 50%. Also, in assay [1] (10 mM KCl+40% ETH), the “magnitude of CT response at 42° relative to 23°” value was “enhanced”. The “temperature producing a sharp increase in the KCl CT response” value in assay [1] (10 mM KCl+60% ETH) is listed as 380. For the same compound, the “temperature of maximum enhancement of the KCl CT response” value in assay [1] (10 mM KCl+60% ETH, 23° to 55.5°) amounted to 41 °. The “effect on magnitude of the Bz-insensitive NaCl CT response” value in assay [1] (100 mM NaCl+5 mM Bz+60% ethanol) is listed as “decreased”; in assay [1] (100 mM NaCl+5 mM Bz+ETH, 20% to 40% ethanol) it was “dose-dependent increase”. In assay [1] (80% ethanol, H2O rinse), the “effect of 42° on CT response to ethanol relative to 23°” value is reported as “no effect”. Further, in assay [1] (KCl and NaCl), the “ethanol concentration that inhibited CT responses” value is greater than 60%. Moreover, the “CT response to ethanol alone” value in assay [1] (ethanol 40%-100% in distilled H2O, 23°) is reported as “only a transient phasic component”. The “increase in F490 relative to zero ethanol” value in assay [4] (150 NaCl+5 mM Bz+10% ethanol) is on record as “bigger increase”. Further, the “increase in F490 relative to 10% ethanol” value in assay [4] (150 NaCl+5 mM Bz+40% ethanol) was “further increase”. The “change in F490 relative to zero ethanol” value in assay [4] (Na+-free Ringer's solution, 10% or 40% ethanol) is listed as “no changes”.

Evodiamine: in assay [1] (100 μM evodiamine in 10 mM KCl), the “effect on chorda tympani response in rinse solution” value is “no effect”. Moreover, in assay [1] (100 mM NaCl+5 μM Bz), the “concentration at which enhancement of the Bz-insensitive NaCl chorda tympani response begins” value was found to be 30 µM and the “concentration of maximum enhancement of the Bz-insensitive NaCl chorda tympani response” value amounted to 300 µM. In assay [1] (100 mM NaCl+5 μM benzamil), the “concentration at which the response is the same as the control response” value stood at 3 mM and the “effect on chorda tympani response at concentrations higher than 3 mM” value is given as “inhibited”.
